Tests used:
[1] = read-out: KD for zinc; cited from earlier work
HEK293 cells = assay: fura-2 intracellular Ca2+ imaging in HEK293 cells; format: cell-based, human; details: poly-APS 0.5 μg/ml, n=11
Description: HEK293 cells (human embryonic kidney cell line) were maintained in Dulbecco's modified Eagle's medium (DMEM). In preparation for transfection experiments cells were seeded 24 hours prior to experimentation at a density of 5×10^5 cells per well in six well plates, the same seeding density was used for confocal and electrophysiology/calcium imaging experiments in 35 mm culture dishes.
Cultured DRG neurones and HEK 293 cells were incubated for 1 hour in NaCl-based extracellular solution containing 10 μM fura-2AM (Sigma, 1 mM stock in dimethylformamide). The cells were then washed for 20 minutes to remove the extracellular fura-2AM and to allow cytoplasmic de-esterification of the Ca^2+ sensitive fluorescent dye. The cells were constantly perfused (1-2 ml/min) and viewed under an inverted Olympus BX50W1 microscope with a KAI-1001 S/N 5B7890-4201 Olympus camera attached. The fluorescence ratiometric images from the data obtained at excitation wavelengths of 340 nm and 380 nm were viewed and analysed using OraCal pro, Merlin morphometry temporal mode (Life Sciences resources, version 1.20).

cultured DRG neurones [2] = assay: Whole-cell recording of membrane potential and input resistance in cultured DRG neurones; format: cell-based, rat; details: 1.5 mM zinc, before poly-APS, n=7
Description: (§1) Primary cultures of dorsal root ganglion (DRG) neurones were prepared following enzymatic and mechanical dissociation of dorsal root ganglia from decapitated 2-day old Sprague Dawley rats. The sensory neurones were plated on laminin-polyornithine coated coverslips and bathed in F14 culture medium (Imperial Laboratories) supplemented with 10% horse serum (Gibco), penicillin (5000 IU/ml), streptomycin ([…]), NaHCO3 (14 mM) and nerve growth factor (20 ng/ml). The cultures were maintained for up to 2 weeks at 37° C. in humidified air with 5% CO2, and re-fed with fresh culture medium every 5-7 days.
(§2) All experiments were conducted at room temperature (approximately 23° C.). The whole-cell recording technique was used to study the actions of poly-APS and halitoxin preparations on membrane potential, input resistance (evaluated from 100-300 ms electrotonic potentials evoked by −30 to −200 pA current commands) and holding current. […] Poly-APS and halitoxin were applied to the extracellular environment by low pressure ejection via a blunt micropipette (tip diameter about […]) positioned approximately […] from the neurone being recorded. […]
The electrophysiological data were stored on digital audio tape (DAT) using a DTR-1200 DAT recorder (Biologic) and subsequently analysed using Cambridge Electronic Design voltage clamp software (version 6). […]

cultured DRG neurones [3] = assay: Voltage clamp recording of poly-APS evoked inward/holding current in DRG neurones; format: cell-based, rat; details: 1.5 mM zinc continually present, before poly-APS, n=6
Description: as §1
as §2, with “current. Whole cell recordings were made using an Axoclamp-2A switching voltage clamp amplifier operated at a sampling rate of 15-20 kHz.” for “current.”

Compound	Kd [1] [nM]	effect of zinc on rise in intracellular Ca2+ produced by poly-APS (HEK293 cells)	resting membrane potential in the presence of zinc (cultured DRG neurones [2]) [mV]	resting holding current at −90 mV with zinc (cultured DRG neurones [3]) [pA]
Cc1ccc(N(CC(=O)O)CC(=O)O)c(OCCOc2cc3cc(-c4ncc(C(=O)O)o4)oc3cc2N(CC(=O)O)CC(=O)O)c1 [fura-2]	~2	–	–	–
[Zn+2] [zinc]	–	attenuated	−47±7	−120±30

— US20070141707A1, “Sponge toxins” (priority 2003, published 2007)
